Each structure is given as a SMILES string.

T1 sequence (P15559 whole entry): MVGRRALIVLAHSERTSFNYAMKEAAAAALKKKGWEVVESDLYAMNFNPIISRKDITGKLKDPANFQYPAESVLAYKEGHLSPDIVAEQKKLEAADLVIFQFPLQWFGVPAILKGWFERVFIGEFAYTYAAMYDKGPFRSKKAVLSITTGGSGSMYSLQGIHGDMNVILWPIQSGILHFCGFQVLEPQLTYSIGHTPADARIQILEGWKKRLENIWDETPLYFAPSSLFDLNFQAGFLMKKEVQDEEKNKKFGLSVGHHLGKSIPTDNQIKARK

One assay relates to SK-OV-3 cells. As to the kind of experiment: Cytotoxic activity, WST-1 assay, ovarian cancer SK-OV-3. The assay is classed as cell-based, human. The following applies: HFF-1 vs SK-OV-3. From the text:
(§1) Anticancer activity of compounds 11–14 was designated against following human cancer cell lines: melanoma (Colo-829), ovarian cancer (SK-OV-3), breast cancer (MDA-MB-231, T47D and MCF-7), lung cancer (A549) and normal fibroblasts (HFF-1). As a reference substance, the doxorubicin was used. The results are presented in Table 1 as IC50, where IC50 means the concentration of tested compounds (µM) causing the growth inhibition of 50% for given tumor cells. The negative value (Neg.) means that the IC50 is higher than 30 µM. Selectivity index (SI) as the ratio of the IC50 for normal fibroblast (HFF-1) to IC50 of the corresponding cell line, is presented in Table S2.
(§2) Compounds 7–14 and doxorubicin were tested for cytotoxic activity in vitro against panel of human cancer cell lines: melanoma (Colo-829, ATCC, Rockville, MD, USA), ovarian cancer (SK-OV-3, ATCC, Rockville, MD, USA), breast cancer (T47D, MCF-7, and MDA-MB-231, ATCC, Rockville, MD, USA) and lung cancer (A549, ATCC, Rockville, MD, USA). The cultured cells were kept at 37 °C and 5% CO2. The cells were seeded (5 × 10^4 cells/well/[…] DMEM supplemented with 10% FCS and streptomycin/penicillin) using 96-well plates (Nunc Thermo Fisher Scientific, Waltham, MA, USA). The tested compounds 7–14 with the concentration of 1–100 µg/mL DMSO were inducted with the cancer cells for 72 h. The WST-1-formazan (proliferation reagent WST-1 assay, Roche Diagnostics, Mannheim, Germany) was detected using a microplate reader at 450 nm. Results were expressed as a mean value of at least three independent experiments performed in triplicate.
On the technique in general: Tetrazolium assays rely on reduction of a dye to a coloured formazan, in cell work by metabolically active cells.
As to `O=C1C(Cl)=C(Oc2cccc3ccc(N4CCCC4)nc23)C(=O)c2cnccc21` [Compound 13e, 6-chloro-7-{[2-(pyrrolidin-1-yl)quinolin-8-yl]oxy}isoquinoline-5,8-dione], the “SI (IC50 HFF-1/IC50 cancer line) SK-OV-3” value is reported as 0.98.
`Cc1ccc2c(n1)C(=O)C(Oc1cccc3ccc(N4CCCC4)nc13)=C(Cl)C2=O` [Compound 12e, 6-chloro-2-methyl-7-{[2-(pyrrolidin-1-yl)quinolin-8-yl]oxy}quinoline-5,8-dione]: the “SI (IC50 HFF-1/IC50 cancer line) SK-OV-3” value was 16.72.

Still in this assay, the particulars now being: Homo sapiens; ovarian cancer SK-OV-3, 72 h, WST-1.
Broadly, the IC50 is the midpoint of a concentration-inhibition curve. Low values mean greater potency, high ones weaker potency. As to `O=C1C(Cl)=C(Oc2cccc3ccc(N4CCCC4)nc23)C(=O)c2cnccc21` [Compound 13e, 6-chloro-7-{[2-(pyrrolidin-1-yl)quinolin-8-yl]oxy}isoquinoline-5,8-dione], the IC50 turned out to be 15.8 ± 0.26 µM.
As to `Cc1ccc2c(n1)C(=O)C(Oc1cccc3ccc(N4CCCC4)nc13)=C(Cl)C2=O` [Compound 12e, 6-chloro-2-methyl-7-{[2-(pyrrolidin-1-yl)quinolin-8-yl]oxy}quinoline-5,8-dione], the IC50 stood at 1.05 ± 0.06 µM.

The subject of a further assay is HFF-1 cells. As to the kind of experiment: Cytotoxic activity, WST-1 assay, normal fibroblasts HFF-1. In kind it is cell-based. The conditions noted are these: Homo sapiens, normal fibroblasts HFF-1, 72 h.
Excerpt: as §1, §2
`O=C1C(Cl)=C(Oc2cccc3ccc(N4CCCC4)nc23)C(=O)c2cnccc21` [Compound 13e, 6-chloro-7-{[2-(pyrrolidin-1-yl)quinolin-8-yl]oxy}isoquinoline-5,8-dione] yielded an IC50 of 15.5 ± 0.72 µM.
`Cc1ccc2c(n1)C(=O)C(Oc1cccc3ccc(N4CCCC4)nc13)=C(Cl)C2=O` [Compound 12e, 6-chloro-2-methyl-7-{[2-(pyrrolidin-1-yl)quinolin-8-yl]oxy}quinoline-5,8-dione] had an IC50 of 17.6 ± 1.05 µM.

A further assay addresses T1, NQO1 (DT-diaphorase, EC 1.6.5.5, human recombinant) (Homo sapiens, UniProt P15559).
T1 construct: purchased Sigma-Aldrich
The assay is described as follows: NQO1 substrate NADPH recycling enzymatic assay. In kind it is biochemical. The conditions noted are these: compound 10 µmol/L, pH 7.4, 25 °C, absorbance at 340 nm. On the procedure:
The interaction between 1,4-quinone moiety of hybrid and NQO1 protein leads to reduction in quinone to hydroquinone and production of reactive oxide form (ROS). According to a literature method, the ability of hybrids 11–14 and streptonigrin (ST) to be a substrate for NQO1 was examined by measuring the oxidation of NADPH to NADP^+ [29, 32].
Compounds 11–14 (10 µmol/L) were tested as NQO1 substrates using the NADPH recycling assay according to the literature method. The recombinant NQO1 (DT-diaphorase, EC 1.6.5.5, human recombinant, Sigma-Aldrich) was used, and the oxidation of NADPH to NADP^+ was measured at the absorption wavelength of 340 nm on the BioTek 800TS microplate reader (BioKom, Janki, Poland). Compounds were dissolved in dimethyl sulfoxide (2 µL) and added to the 96-well plate. The NQO1 protein (1.4 µg/mL) in 50 mmol/L potassium phosphate buffer (pH = 7.4) was added to each well (198 µL) (Nunc Thermo Fisher Scientific, Waltham, MA, USA). Once the 96-well plate was filled with the assay solutions, except the NADPH solution, it was placed into the instrument and left to sit for 5 min before starting the measurements. The enzymatic reaction was initiated by automatically dispensing the NADPH solution into the wells, and data were recorded at 10 s intervals for 5 min at 25 °C. The linear part of the absorbance vs. time graphs (the first 20 s to 1 min) was fitted, and the slopes were calculated. NADPH oxidation rates were compared with reactions lacking the tested compound. Initial velocities were calculated, and data were expressed as µmol NADPH/µmol NQO1/min. All reactions were carried out at least in triplicate.
`O=C1C(Cl)=C(Oc2cccc3ccc(N4CCCC4)nc23)C(=O)c2cnccc21` [Compound 13e, 6-chloro-7-{[2-(pyrrolidin-1-yl)quinolin-8-yl]oxy}isoquinoline-5,8-dione]: the “NQO1 activity (enzymatic conversion rate)” value was determined as 214 ± 21 µmol NADPH/µmol NQO1/min.
Take `Cc1ccc2c(n1)C(=O)C(Oc1cccc3ccc(N4CCCC4)nc13)=C(Cl)C2=O` [Compound 12e, 6-chloro-2-methyl-7-{[2-(pyrrolidin-1-yl)quinolin-8-yl]oxy}quinoline-5,8-dione]: the “NQO1 activity (enzymatic conversion rate)” value was found to be 600 ± 35 µmol NADPH/µmol NQO1/min.

The subject of another assay is Colo-829 cells. As to the kind of experiment: Cytotoxic activity, WST-1 assay, melanoma Colo-829. In kind it is cell-based, human. The conditions noted are these: HFF-1 vs Colo-829.
Excerpt: as §1, §2
As to `O=C1C(Cl)=C(Oc2cccc3ccc(N4CCCC4)nc23)C(=O)c2cnccc21` [Compound 13e, 6-chloro-7-{[2-(pyrrolidin-1-yl)quinolin-8-yl]oxy}isoquinoline-5,8-dione], the “SI (IC50 HFF-1/IC50 cancer line) Colo-829” value was 0.79.
Consider `Cc1ccc2c(n1)C(=O)C(Oc1cccc3ccc(N4CCCC4)nc13)=C(Cl)C2=O` [Compound 12e, 6-chloro-2-methyl-7-{[2-(pyrrolidin-1-yl)quinolin-8-yl]oxy}quinoline-5,8-dione], for which the “SI (IC50 HFF-1/IC50 cancer line) Colo-829” value is 11.48.

The same assay, now with this note: Homo sapiens; melanoma Colo-829, 72 h, WST-1.
Take `O=C1C(Cl)=C(Oc2cccc3ccc(N4CCCC4)nc23)C(=O)c2cnccc21` [Compound 13e, 6-chloro-7-{[2-(pyrrolidin-1-yl)quinolin-8-yl]oxy}isoquinoline-5,8-dione]: the IC50 was found to be 19.6 ± 1.32 µM.
Still for that read-out and setting: to `Cc1ccc2c(n1)C(=O)C(Oc1cccc3ccc(N4CCCC4)nc13)=C(Cl)C2=O` [Compound 12e, 6-chloro-2-methyl-7-{[2-(pyrrolidin-1-yl)quinolin-8-yl]oxy}quinoline-5,8-dione] belongs 1.53 ± 0.08 µM.

For a further assay, the system named is T47D cells. The assay is described as follows: Cytotoxic activity, WST-1 assay, breast cancer T47D. The assay is classed as cell-based, human. The conditions noted are these: HFF-1 vs T47D.
Excerpt: as §1, §2
Consider `Cc1ccc2c(n1)C(=O)C(Oc1cccc3ccc(N4CCCC4)nc13)=C(Cl)C2=O` [Compound 12e, 6-chloro-2-methyl-7-{[2-(pyrrolidin-1-yl)quinolin-8-yl]oxy}quinoline-5,8-dione], for which the “SI (IC50 HFF-1/IC50 cancer line) T47D” value amounted to 1.01.

The assay is the same for the next values; noted with them: Homo sapiens; breast cancer T47D, 72 h, WST-1.
For the molecule `O=C1C(Cl)=C(Oc2cccc3ccc(N4CCCC4)nc23)C(=O)c2cnccc21` [Compound 13e, 6-chloro-7-{[2-(pyrrolidin-1-yl)quinolin-8-yl]oxy}isoquinoline-5,8-dione], the IC50 was over 30 µM.
As to `Cc1ccc2c(n1)C(=O)C(Oc1cccc3ccc(N4CCCC4)nc13)=C(Cl)C2=O` [Compound 12e, 6-chloro-2-methyl-7-{[2-(pyrrolidin-1-yl)quinolin-8-yl]oxy}quinoline-5,8-dione], the IC50 is 17.4 ± 1.3 µM.

The next assay has as its system A549 cells. The assay is described as follows: Cytotoxic activity, WST-1 assay, lung cancer A549. In kind it is cell-based, human. The conditions noted are these: HFF-1 vs A549.
Excerpt: as §1, §2
With `O=C1C(Cl)=C(Oc2cccc3ccc(N4CCCC4)nc23)C(=O)c2cnccc21` [Compound 13e, 6-chloro-7-{[2-(pyrrolidin-1-yl)quinolin-8-yl]oxy}isoquinoline-5,8-dione], the “SI (IC50 HFF-1/IC50 cancer line) A549” value came to 1.11.
Regarding `Cc1ccc2c(n1)C(=O)C(Oc1cccc3ccc(N4CCCC4)nc13)=C(Cl)C2=O` [Compound 12e, 6-chloro-2-methyl-7-{[2-(pyrrolidin-1-yl)quinolin-8-yl]oxy}quinoline-5,8-dione], the “SI (IC50 HFF-1/IC50 cancer line) A549” value turned out to be 1.16.

The assay is the same for the next values; noted with them: Homo sapiens; lung cancer A549, 72 h, WST-1.
For `O=C1C(Cl)=C(Oc2cccc3ccc(N4CCCC4)nc23)C(=O)c2cnccc21` [Compound 13e, 6-chloro-7-{[2-(pyrrolidin-1-yl)quinolin-8-yl]oxy}isoquinoline-5,8-dione], the IC50 amounted to 14 ± 0.26 µM.
`Cc1ccc2c(n1)C(=O)C(Oc1cccc3ccc(N4CCCC4)nc13)=C(Cl)C2=O` [Compound 12e, 6-chloro-2-methyl-7-{[2-(pyrrolidin-1-yl)quinolin-8-yl]oxy}quinoline-5,8-dione] displayed an IC50 of 15.1 ± 0.39 µM.

The next assay has as its system MCF-7 cells. The assay is described as follows: Cytotoxic activity, WST-1 assay, breast cancer MCF-7. The assay is classed as cell-based, human. The following applies: HFF-1 vs MCF-7.
Excerpt: as §1, §2
Regarding `O=C1C(Cl)=C(Oc2cccc3ccc(N4CCCC4)nc23)C(=O)c2cnccc21` [Compound 13e, 6-chloro-7-{[2-(pyrrolidin-1-yl)quinolin-8-yl]oxy}isoquinoline-5,8-dione], the “SI (IC50 HFF-1/IC50 cancer line) MCF-7” value is listed as 0.92.
With `Cc1ccc2c(n1)C(=O)C(Oc1cccc3ccc(N4CCCC4)nc13)=C(Cl)C2=O` [Compound 12e, 6-chloro-2-methyl-7-{[2-(pyrrolidin-1-yl)quinolin-8-yl]oxy}quinoline-5,8-dione], the “SI (IC50 HFF-1/IC50 cancer line) MCF-7” value is 9.29.

The assay is the same for the next values; noted with them: Homo sapiens, MCF7; breast cancer MCF-7, 72 h, WST-1.
For the molecule `O=C1C(Cl)=C(Oc2cccc3ccc(N4CCCC4)nc23)C(=O)c2cnccc21` [Compound 13e, 6-chloro-7-{[2-(pyrrolidin-1-yl)quinolin-8-yl]oxy}isoquinoline-5,8-dione], the IC50 was found to be 16.9 ± 0.5 µM.
On to `Cc1ccc2c(n1)C(=O)C(Oc1cccc3ccc(N4CCCC4)nc13)=C(Cl)C2=O` [Compound 12e, 6-chloro-2-methyl-7-{[2-(pyrrolidin-1-yl)quinolin-8-yl]oxy}quinoline-5,8-dione], for which the IC50 was determined as 1.89 ± 0.23 µM.

The subject of a further assay is MDA-MB-231 cells. As to the kind of experiment: Cytotoxic activity, WST-1 assay, breast cancer MDA-MB-231. In kind it is cell-based, human. The conditions noted are these: HFF-1 vs MDA-MB-231.
Excerpt: as §1, §2
As to `O=C1C(Cl)=C(Oc2cccc3ccc(N4CCCC4)nc23)C(=O)c2cnccc21` [Compound 13e, 6-chloro-7-{[2-(pyrrolidin-1-yl)quinolin-8-yl]oxy}isoquinoline-5,8-dione], the “SI (IC50 HFF-1/IC50 cancer line) MDA-MB-231” value amounted to 0.93.
Turning to `Cc1ccc2c(n1)C(=O)C(Oc1cccc3ccc(N4CCCC4)nc13)=C(Cl)C2=O` [Compound 12e, 6-chloro-2-methyl-7-{[2-(pyrrolidin-1-yl)quinolin-8-yl]oxy}quinoline-5,8-dione], the “SI (IC50 HFF-1/IC50 cancer line) MDA-MB-231” value is on record as 11.71.

The same assay, now with this note: Homo sapiens; breast cancer MDA-MB-231, 72 h, WST-1.
`O=C1C(Cl)=C(Oc2cccc3ccc(N4CCCC4)nc23)C(=O)c2cnccc21` [Compound 13e, 6-chloro-7-{[2-(pyrrolidin-1-yl)quinolin-8-yl]oxy}isoquinoline-5,8-dione] returned an IC50 of 16.6 ± 0.38 µM.
`Cc1ccc2c(n1)C(=O)C(Oc1cccc3ccc(N4CCCC4)nc13)=C(Cl)C2=O` [Compound 12e, 6-chloro-2-methyl-7-{[2-(pyrrolidin-1-yl)quinolin-8-yl]oxy}quinoline-5,8-dione]: half-maximal inhibition (IC50) required 1.5 ± 0.15 µM.

For the origin of these results see publication PMC9572083, “Hybrids of 1,4-Quinone with Quinoline Derivatives: Synthesis, Biological Activity, and Molecular Docking with DT-Diaphorase (NQO1)” (Molecules, 2022).
